The source of these data is US9200260B2, “Compositions and methods for the transfer of a hexosamine to a modified nucleotide in a nucleic acid” (New England Biolabs, Inc., priority 2012, dated 2015).

The target of test [1] is T1, wild-type BGT (T4-β-glucosyltransferase) (Enterobacteria phage T4, UniProt P04547).
T1 construct: purchased New England Biolabs, Inc. (Ipswich, Mass.)
T1 sequence (P04547 1-351): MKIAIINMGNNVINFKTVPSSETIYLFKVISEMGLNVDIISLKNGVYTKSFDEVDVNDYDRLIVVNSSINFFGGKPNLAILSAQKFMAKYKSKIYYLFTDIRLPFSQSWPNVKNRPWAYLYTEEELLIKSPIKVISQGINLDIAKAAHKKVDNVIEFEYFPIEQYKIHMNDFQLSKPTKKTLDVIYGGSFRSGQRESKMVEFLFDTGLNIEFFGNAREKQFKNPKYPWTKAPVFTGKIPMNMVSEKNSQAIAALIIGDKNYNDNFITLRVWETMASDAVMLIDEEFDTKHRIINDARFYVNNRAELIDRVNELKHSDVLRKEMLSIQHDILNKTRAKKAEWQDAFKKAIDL
The experiment in a line: Enzymatic transfer of UDP-sugars to BGT DNA by wild-type BGT (protection from MfeI cleavage, agarose gel). The class given is biochemical. The settings on record: for UDP-Sugar concentration required for complete protection of BGT DNA from MfeI cleavage: enzyme BGT, 100 ng, 0.25 μg BGT DNA, 37° C. 1 h, >> incomplete protection at highest tested concentration, n.a. no activity. As to the method:
(§1) After glycosylation, the glucosyltransferase was heat-inactivated by incubating for 10 minutes at 70° C. To analyze the enzyme-catalyzed transfer efficiency, samples were incubated with 1 μL (20 units) MfeI for 1 hour at 37° C. Reaction products were separated by agarose gel electrophoresis and stained with ethidium bromide to check for complete protection of BGT DNA against MfeI cleavage. […]
(§2) BGT DNA contains 5-hmC instead of cytosine and was produced from phage deficient in α- and β-glucosyltransferases. The degree of glycosylation of BGT DNA was determined by incubating the samples with the restriction endonuclease MfeI.
(§3) Top row: wild-type BGT; middle row: BGT/Y261L; bottom row: wild-type AGT. […] Then the glucosyltransferase was killed by heat at 70° C., and 1 μL (20 units) MfeI was added and incubated at 37° C. for 1 hour. The results were analyzed by agarose gel electrophoresis. Concentration values are given in mM.
(§4) Top row: wild-type BGT; middle row: BGT/Y261L; bottom row: wild-type AGT. […] Various concentrations of each substrate (as indicated) were incubated with 0.25 μg BGT DNA in the presence of 100 ng glucosyltransferase at 37° C. for 1 hour. Then the glucosyltransferase was killed by heat at 70° C. for 10 minutes, and 1 μL (20 units) MfeI was added and incubated at 37° C. for 1 hour. The results were analyzed by agarose gel electrophoresis. Concentration values are given in mM.

In test [2] the target is T2, wild-type BGT (Enterobacteria phage T4, UniProt P04547). To be noted: cited from earlier work.
Test [3] has as its target T3, BGT/Y261L (Enterobacteria phage T4, UniProt P04547, Y261L). The test is classed as biochemical. More on the design: purchased New England Biolabs, Inc. (Ipswich, Mass.). To be noted: for transfer efficiency by BGT/Y261L (in words): compared with natural UDP-Glc; for UDP-Sugar concentration required for complete protection of BGT DNA from MfeI cleavage: enzyme BGT/Y261L, 100 ng, 0.25 μg BGT DNA, 37° C. 1 h, >> incomplete protection at highest tested concentration, n.a. no activity. As to the method:
as §1, §2, §3, §4

Test [4] deals with T4, wild-type AGT (T4 phage α-glucosyltransferase) (Enterobacteria phage T4, UniProt P04519).
T4 construct: purchased New England Biolabs, Inc. (Ipswich, Mass.)
T4 sequence (P04519 whole entry): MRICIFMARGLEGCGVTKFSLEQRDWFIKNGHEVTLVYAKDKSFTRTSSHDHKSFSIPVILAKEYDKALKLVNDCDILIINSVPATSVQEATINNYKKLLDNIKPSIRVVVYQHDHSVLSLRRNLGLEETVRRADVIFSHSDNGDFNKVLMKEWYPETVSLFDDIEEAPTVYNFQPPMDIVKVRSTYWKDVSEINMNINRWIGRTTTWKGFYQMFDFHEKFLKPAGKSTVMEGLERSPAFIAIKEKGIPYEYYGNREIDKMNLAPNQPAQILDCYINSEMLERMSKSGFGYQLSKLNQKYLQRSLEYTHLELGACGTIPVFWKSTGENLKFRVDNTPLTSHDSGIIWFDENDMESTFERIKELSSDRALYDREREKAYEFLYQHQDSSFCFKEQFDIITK
The test can be described thus: Enzymatic transfer of UDP-sugars to BGT DNA by wild-type AGT (protection from MfeI cleavage, agarose gel). The class given is biochemical. The settings on record: for UDP-Sugar concentration required for complete protection of BGT DNA from MfeI cleavage: enzyme AGT, 100 ng, 0.25 μg BGT DNA, 37° C. 1 h, >> incomplete protection at highest tested concentration, n.a. no activity. How it is done:
After glycosylation, the glucosyltransferase was heat-inactivated by incubating for 10 minutes at 70° C. To analyze the enzyme-catalyzed transfer efficiency, samples were incubated with 1 μL (20 units) MfeI for 1 hour at 37° C. Reaction products were separated by agarose gel electrophoresis and stained with ethidium bromide to check for complete protection of BGT DNA against MfeI cleavage.
Nucleic Acids Res., 13, 7551-7568; Szwagierczak, A., Bultmann, S., Schmidt, C. […] Nucleic Acids Res., 38, e181].
as §2, §3, §4

The target of test [5] is T3, BGT/Y261L. To be noted: 0.02 to 10.0 mM in the presence of 40 μM UDP-Glc; UDP-Glc 0.02 to 20.0 mM in the presence of 5 mM compound. As to the method: (§5) After adding 100 ng of wild-type BGT or BGT/Y261L, the reaction mixtures were incubated at 37° C. for 1 hour in 1× NEBuffer 4. After glycosylation, the glucosyltransferase was heat-inactivated by incubating for 10 minutes at 70° C. […] Reaction products were separated by electrophoresis on agarose gel and stained with ethidium bromide.
(§6) Concentration values are given in mM.

The target in test [6] is T2, wild-type BGT. To be noted: 0.02 to 10.0 mM in the presence of 40 μM UDP-Glc; UDP-Glc 0.02 to 20.0 mM in the presence of 5 mM compound. How it is done: as §5, §6
The next test concerns the target AGT (Enterobacteria phage T4, UniProt P04519).

T3 sequence (P04547 whole entry Y261L): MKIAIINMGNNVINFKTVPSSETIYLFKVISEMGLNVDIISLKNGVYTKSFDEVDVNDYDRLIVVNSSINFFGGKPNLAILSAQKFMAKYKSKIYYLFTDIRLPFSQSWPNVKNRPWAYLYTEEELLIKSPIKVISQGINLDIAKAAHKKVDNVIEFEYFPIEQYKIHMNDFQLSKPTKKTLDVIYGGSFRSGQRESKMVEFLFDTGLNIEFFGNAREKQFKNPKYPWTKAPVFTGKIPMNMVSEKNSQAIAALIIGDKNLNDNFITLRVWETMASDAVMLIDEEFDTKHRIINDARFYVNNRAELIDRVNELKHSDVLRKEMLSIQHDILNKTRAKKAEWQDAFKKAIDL
AGT, sequence (P04519 whole entry): as the sequence (P04519 whole entry) above

For `[N-]=[N+]=NCC1OC(OP(=O)(O)OP(=O)(O)OC[C@H]2O[C@@H](n3ccc(=O)[nH]c3=O)[C@H](O)[C@@H]2O)C(O)C(O)C1O` (stereo partly shown) [Compound 1, UDP-6-Azido-Glc, reference compound], the “UDP-Sugar concentration required for complete protection of BGT DNA from MfeI cleavage” value (from here on “UDP-Sugar concentration required”) in test [1] is listed as 0.04 mM. On wild-type BGT [2], the “decrease in the reaction rate compared to the native UDP-Glc cofactor” value was about 6 fold. In addition, at BGT/Y261L [3], the “transfer efficiency by BGT/Y261L (in words)” value is recorded as “cannot efficiently transfer” and the “UDP-Sugar concentration required” value was >>1.0 mM.

As to `[N-]=[N+]=NC1C(OP(=O)(O)OP(=O)(O)OCC2OC(n3ccc(=O)[nH]c3=O)C(O)C2O)OC(CO)C(O)C1O` (stereo not shown) [Compound 2, UDP-2-Azido-Glc], the “transfer efficiency by wild-type BGT (in words)” value in test [1] (compared with natural UDP-Glc) is “None of the three tested enzymes efficiently transferred”. Besides, the “transfer efficiency by wild-type AGT (in words)” value in test [4] is “None of the three tested enzymes efficiently transferred”. The “inhibition of BGT/Y261L (mode, in words)” value on BGT/Y261L [5] is reported as “competitive inhibitor”. The “inhibition of wild-type BGT (mode, in words)” value at wild-type BGT [6] is listed as “competitive inhibitor”. Further, on AGT, the “inhibition of AGT (in words)” value is on record as “not for AGT”. At BGT/Y261L [3], the “transfer efficiency by BGT/Y261L (in words)” value is “None of the three tested enzymes efficiently transferred”.

For `NCC1OC(OP(=O)(O)OP(=O)(O)OC[C@H]2O[C@@H](n3ccc(=O)[nH]c3=O)[C@H](O)[C@@H]2O)C(O)C(O)C1O` (stereo partly shown) [Compound 3, UDP-6-glucosamine], the “UDP-Sugar concentration required” value in test [1] is on record as 0.02 mM; in test [4], >>5.0 mM; at BGT/Y261L [3] it was 0.31 mM. Further, the “transfer efficiency by BGT/Y261L, lower than natural UDP-Glc” value at BGT/Y261L [3] (relative to natural UDP-Glc) was “about 15 fold”.

As for `N[C@H]1[C@@H](OP(=O)(O)OP(=O)(O)OC[C@H]2O[C@@H](n3ccc(=O)[nH]c3=O)[C@H](O)[C@@H]2O)O[C@H](CO)[C@@H](O)[C@@H]1O` [Compound 4, UDP-2-glucosamine], the results for the “UDP-Sugar concentration required” value (in test [1]; in test [4]; on BGT/Y261L [3]) were 0.03 mM, >>1.25 mM and 0.03 mM, respectively.

For the compound `CC(=O)N[C@H]1[C@@H](OP(=O)(O)OP(=O)(O)OC[C@H]2O[C@@H](n3ccc(=O)[nH]c3=O)[C@H](O)[C@@H]2O)O[C@H](CO)[C@@H](O)[C@@H]1O` [UDP-GlcNAc, UDP-N-acetyl-D-glucosamine, reference compound], the entries for the “UDP-Sugar concentration required” value (in test [1]; in test [4]; at BGT/Y261L [3]) were 25 mM, >>20.0 mM and 2.5 mM, respectively. Besides, the “transfer by BGT/Y261L more efficient than by wild-type BGT” value at BGT/Y261L [3] (BGT/Y261L versus wild-type BGT) came to 10 fold. The “transfer efficiency by the Y261L enzyme, lower compared to UDP-2-GlcN 4” value on BGT/Y261L [3] (relative to UDP-2-GlcN 4) was “approximately 100 fold”.

For the compound `O=C(O)[C@H]1O[C@H](OP(=O)(O)OP(=O)(O)OC[C@H]2O[C@@H](n3ccc(=O)[nH]c3=O)[C@H](O)[C@@H]2O)[C@H](O)[C@@H](O)[C@@H]1O` [UDP-GlcUA, UDP-Glucuronic acid, reference compound], the “UDP-Sugar concentration required” value is given as 1.0 mM in test [1], >>20.0 mM in test [4] and >>10.0 mM at BGT/Y261L [3].

For UDP-2-Keto-Glc [Compound 5], the “UDP-Sugar concentration required” value (in test [1]; on BGT/Y261L [3]) was >>4.0 mM in each case. Besides, the “transfer by BGT/Y261L at the highest tested concentration” value at BGT/Y261L [3] (4 mM) is “not detected”.
